Values quoted from earlier work in patent publication US20050096371A1, “Topical pharmaceutical compositions” (priority 2003, published 2005).

What was measured:
human subjects = details: repeated insult patch test, 50 human subjects, total of 15 applications; manufacturer's brochure
humans = details: Marzulli and Maibach's method

Row | PII (rabbit skin) | Structure (SMILES) | irritation to rabbit skin (rabbit skin) | primary dermal irritation / sensitization (human subjects) | cutaneous irritation (rabbits) | cutaneous irritation / sensitization (humans)
1 | 0.5 | CN1CCCC1=O [Pharmasolve®, N-methyl-2-pyrrolidone] | practically nonirritating | neither a primary dermal irritant nor a sensitizer |  | 
2 |  | CCOCCOCCO [Transcutol®, diethylene glycol monoethyl ether] |  |  | nonirritating | nonirritating and non-sensitizing
